This note sets out measurements from ChEMBL document CHEMBL3045160, “Betuligenol derivative with growth inhibition and antifeedant activity” (2004).

Assay type in all cases: functional
Test [1] concerns Spilarctia obliqua. In words: Antifeedant activity against fourth-instar larval stage of Spilarctia obliqua reared on artificial diet containing compound assessed as growth inhibition at 4000 ppm after 48 hr. Particulars: read-out: GI.
Test [2] concerns Spilarctia obliqua. In words: Antifeedant activity against fourth-instar larval stage of Spilarctia obliqua reared on artificial diet containing compound assessed as growth inhibition at 3000 ppm after 48 hr. The following applies: read-out: GI.
Test [3] concerns Spilarctia obliqua. Kind of test: Antifeedant activity against fourth-instar larval stage of Spilarctia obliqua reared on artificial diet containing compound assessed as growth inhibition at 5000 ppm after 48 hr. Particulars: read-out: GI.
Test [4] relates to Spilarctia obliqua. Kind of test: Antifeedant activity against fourth-instar larval stage of Spilarctia obliqua reared on artificial diet containing compound assessed as feeding deterrence index at 2000 ppm after 24 hr.
Test [5] concerns Spilarctia obliqua. In words: Antifeedant activity against fourth-instar larval stage of Spilarctia obliqua reared on artificial diet containing compound assessed as feeding deterrence index at 4000 ppm after 24 hr.
Test [6] deals with Spilarctia obliqua. In words: Antifeedant activity against fourth-instar larval stage of Spilarctia obliqua reared on artificial diet containing compound assessed as feeding deterrence index at 1000 ppm after 24 hr.
The subject of test [7] is Spilarctia obliqua. Kind of test: Antifeedant activity against fourth-instar larval stage of Spilarctia obliqua reared on artificial diet containing compound assessed as growth inhibition at 1000 ppm after 48 hr. Particulars: read-out: GI.
The subject of test [8] is Spilarctia obliqua. In words: Antifeedant activity against fourth-instar larval stage of Spilarctia obliqua reared on artificial diet containing compound assessed as feeding deterrence index at 5000 ppm after 24 hr.
The subject of test [9] is Spilarctia obliqua. In words: Antifeedant activity against fourth-instar larval stage of Spilarctia obliqua reared on artificial diet containing compound assessed as growth inhibition at 2000 ppm after 48 hr. The following applies: read-out: GI.
Test [10] deals with Spilarctia obliqua. In words: Antifeedant activity against fourth-instar larval stage of Spilarctia obliqua reared on artificial diet containing compound assessed as feeding deterrence index at 3000 ppm after 24 hr.
Test [11] has as its system Spilarctia obliqua. In words: Antifeedant activity against fourth-instar larval stage of Spilarctia obliqua reared on artificial diet containing compound assessed as growth inhibition […] after 48 hr. The following applies: read-out: GI.

On to `COc1ccc(CC[C@@H](C)N)cc1`, for which the inhibition of growth at 4000 ppm in [1] was determined as 100%. Further, the inhibition of growth at 3000 ppm in test [2] was 72%. For the same compound, the inhibition of growth at 5000 ppm in test [3] was 128%. Besides, the FDI was 40% in test [4]; 82% in test [5]; 32% in [6]; 100% in test [8]; 64% in test [10]. The inhibition of growth at 1000 ppm in [7] came out at 48%. Besides, the inhibition of growth at 2000 ppm in test [9] turned out to be 59%.

For `C/C=C(\C)C(=O)O[C@H]1C[C@@H](OC(C)=O)[C@@]2(C(=O)OC)CO[C@H]3[C@@H](O)[C@@](C)([C@]45O[C@@]4(C)[C@@H]4C[C@H]5O[C@@H]5OC=C[C@@]54O)[C@H]4[C@]1(CO[C@]4(O)C(=O)OC)[C@@H]32` [AZADIRACHTIN A], the FDI in [6] was 100%.

With `O=C(NC(=O)c1c(F)cccc1F)Nc1ccc(Cl)cc1` [DIFLUBENZURON], the inhibition of growth at 5 ppm in test [11] was 100%.
